From ChEMBL document CHEMBL1201862, “PubChem BioAssay data set” (2004)
Counter-ions that a name gives are not always drawn.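 Assay format: 96-well plates, 48-hour exposure. At the GI50, growth is halved.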 The source made the active and inactive calls. Rule as the data show it: active = GI50 up to about 1.1 µM and inactive = higher.

How the values were obtained:
Assay in all cases: growth of human tumour cells (NCI), 48 h
[1] = tested on: RXF 393
[2] = tested on: ACHN
[3] = tested on: UACC-257
[4] = tested on: CAKI-1
[5] = tested on: K562
[6] = tested on: HCC 2998
[7] = tested on: SR
[8] = tested on: SK-MEL-5
[9] = tested on: SK-MEL-2
[10] = tested on: HCT-116
[11] = tested on: A498
[12] = tested on: SK-MEL-28
[13] = tested on: M14
[14] = tested on: PC-3
[15] = tested on: MDA-MB-435
[16] = tested on: MDA-MB-231
[17] = tested on: NCI/ADR-RES
[18] = tested on: MCF7
[19] = tested on: MDA-N

Measured: GI50

Cn1c(=O)nc2n(-c3cc(C(F)(F)F)cc(C(F)(F)F)c3)c3ccccc3nc-2c1=O
inactive: [1] 75.7 µM | [2] 75.3 µM | [3] > 100 µM | [4] > 100 µM | [5] > 100 µM | [6] > 100 µM | [7] > 100 µM | [8] 8.18 µM | [9] > 100 µM | [10] > 100 µM | [11] > 100 µM | [12] > 100 µM | [13] > 100 µM

CC(C)=C1C(=O)C[C@]2(C)C[C@H]3O[C@]3(C)CC[C@@H]3O[C@@]3(C)CC[C@@H]12
inactive: [14] > 50 µM | [1] > 50 µM | [2] > 50 µM | [3] > 50 µM | [4] > 50 µM | [5] 44.3 µM | [6] > 50 µM | [7] 34.5 µM | [9] > 50 µM | [10] > 50 µM | [11] > 50 µM | [12] > 50 µM | [13] > 50 µM | [15] > 50 µM | [16] > 50 µM | [17] > 50 µM | [18] > 50 µM

Cc1cc(S(=O)(=O)Nc2cc(N)n[nH]2)c(SCc2nc(N)nc(N(C)C)n2)cc1Cl
inactive: [14] > 10 µM | [1] > 10 µM | [2] > 10 µM | [3] > 10 µM | [4] > 10 µM | [5] > 10 µM | [6] > 10 µM | [7] > 10 µM | [8] > 10 µM | [19] > 10 µM | [9] > 10 µM | [10] > 10 µM | [11] > 10 µM | [12] > 10 µM | [13] > 10 µM | [17] > 10 µM | [18] > 10 µM

CCOC(=O)c1nc2ccccc2nc1Nc1ccc(Cl)c(Cl)c1
inactive: [2] 76.7 µM | [4] 24.5 µM | [5] 76.7 µM | [6] > 100 µM | [7] > 100 µM | [8] 21.5 µM | [19] 68.1 µM | [9] 89.7 µM | [10] 29 µM | [12] > 100 µM | [13] 57.8 µM | [15] > 100 µM | [16] > 100 µM | [17] > 100 µM | [18] 70 µM

Cc1ccc(S(=O)(=O)NC(=O)NC(CC(N)=O)C(=O)O)cc1 (stereo unspecified)
inactive: [14] > 100 µM | [1] > 100 µM | [2] > 100 µM | [3] > 100 µM | [5] > 100 µM | [7] > 100 µM | [8] > 100 µM | [19] > 100 µM | [9] > 100 µM | [10] > 100 µM | [12] > 100 µM | [13] > 100 µM | [16] > 100 µM | [17] > 100 µM | [18] > 100 µM

O=C(OCCN1CCCCCC1)C(c1ccsc1)C1CCCCC1 (stereo unspecified) [CETIEDIL CITRATE]
inactive: [14] 18.4 µM | [2] 17.1 µM | [3] 18.8 µM | [4] 14.5 µM | [6] 15.2 µM | [7] 26.6 µM | [19] 14 µM | [10] 14.1 µM | [12] 20.3 µM | [13] 17.3 µM | [15] 16.9 µM | [16] 16.7 µM | [17] 15.7 µM | [18] 16.7 µM

CCOC(=O)C1CCCCc2sc(N)c(C#N)c21 (stereo unspecified)
inactive: [14] > 100 µM | [1] > 100 µM | [2] > 100 µM | [3] > 100 µM | [5] > 100 µM | [6] > 100 µM | [7] > 100 µM | [8] > 100 µM | [19] > 100 µM | [9] > 100 µM | [10] > 100 µM | [11] > 100 µM | [12] > 100 µM | [13] > 100 µM | [16] > 100 µM | [18] > 100 µM

COc1cc(/C=C/c2ccc(OC)c(OC)c2)cc(OC)c1 [(E)-3,4,3',5'-TETRAMETHOXYSTILBENE]
inactive: [14] 62.7 µM | [1] 19.6 µM | [2] 30.5 µM | [3] 46.3 µM | [4] 32.9 µM | [5] 41.1 µM | [7] 30.9 µM | [8] 19 µM | [9] 32 µM | [10] 23.1 µM | [12] 36.2 µM | [13] 28.1 µM | [15] 25.7 µM | [16] 22.9 µM | [17] 20.9 µM | [18] 57 µM

COC(=O)c1nc2c(C)c(O)c(O)c([C@H](C)CCC=C(C)C)c2o1
inactive: [14] 26.6 µM | [1] 21.4 µM | [2] 22.6 µM | [3] 28.4 µM | [4] 23.8 µM | [5] 50.6 µM | [6] 30.1 µM | [7] 7 µM | [8] 13 µM | [9] 20.5 µM | [10] 8.34 µM | [11] 21.7 µM | [12] 32.7 µM | [13] 37.3 µM | [15] 26.8 µM | [16] 45.1 µM | [17] 25.2 µM | [18] 36.3 µM

COc1cc(COC(=O)N2CCC2C(=O)O)c([N+](=O)[O-])cc1OC (stereo unspecified)
inactive: [14] > 100 µM | [1] > 100 µM | [2] > 100 µM | [3] > 100 µM | [5] > 100 µM | [6] > 100 µM | [7] > 100 µM | [8] > 100 µM | [19] > 100 µM | [10] > 100 µM | [11] > 100 µM | [12] > 100 µM | [13] > 100 µM | [15] > 100 µM | [17] > 100 µM | [18] > 100 µM

O=P(O)(O)OC1O[C@H](CO)[C@H](O)[C@H](O)[C@H]1O (stereo partly specified)
inactive: [1] > 100 µM | [2] > 100 µM | [3] > 100 µM | [4] > 100 µM | [5] > 100 µM | [6] > 100 µM | [7] > 100 µM | [8] > 100 µM | [19] > 100 µM | [9] > 100 µM | [10] > 100 µM | [11] > 100 µM | [12] > 100 µM | [13] > 100 µM | [15] > 100 µM | [16] > 100 µM | [17] > 100 µM | [18] > 100 µM

O=C(O)c1cccc(S(=O)(=O)NN2C(=O)CSC2c2ccc(Cl)cc2Cl)c1 (stereo unspecified)
inactive: [14] 94.2 µM | [1] 37.2 µM | [2] > 100 µM | [3] 35.2 µM | [4] > 100 µM | [5] 24 µM | [6] > 100 µM | [7] 17.6 µM | [8] > 100 µM | [19] 24.7 µM | [9] 32.3 µM | [10] 28.7 µM | [11] > 100 µM | [12] 23.2 µM | [13] 34.5 µM | [15] 21.2 µM | [16] 43.5 µM | [18] 32.1 µM

Cc1ccc(O)c(-c2cc(-c3ccccc3)nc(/N=C\c3ccccc3)n2)c1
inactive: [14] > 100 µM | [2] 13.1 µM | [3] > 100 µM | [5] 45.6 µM | [7] 59.4 µM | [8] 31.5 µM | [19] 94.2 µM | [9] 25.8 µM | [10] 28.4 µM | [12] > 100 µM | [13] > 100 µM | [15] > 100 µM | [16] 77.3 µM | [17] 21.5 µM | [18] 2.6 µM

CC1(C)O[C@@H](CP(c2ccccc2)c2ccccc2)[C@H](CP(c2ccccc2)c2ccccc2)O1
inactive: [1] 8.15 µM | [2] 15.2 µM | [3] 6.98 µM | [4] 21 µM | [8] 5.74 µM | [19] 3.05 µM | [10] 1.84 µM | [11] 12.6 µM | [12] 12.3 µM | [13] 5.94 µM | [15] 6.03 µM | [16] 5.85 µM | [17] 12.4 µM

C1CSCC2(COC2)CSCCSCC2(COC2)CS1
inactive: [14] > 100 µM | [3] > 100 µM | [5] > 100 µM | [6] > 100 µM | [7] > 100 µM | [8] > 100 µM | [19] > 100 µM | [10] > 100 µM | [12] > 100 µM | [13] > 100 µM | [15] > 100 µM | [16] > 100 µM | [17] > 100 µM | [18] > 100 µM

N/N=C(\N)Nc1cccc2ccccc12
inactive: [1] > 100 µM | [2] > 100 µM | [3] > 100 µM | [5] > 100 µM | [6] > 100 µM | [7] > 100 µM | [8] > 100 µM | [10] > 100 µM | [11] 33.3 µM | [12] > 100 µM | [13] > 100 µM | [15] > 100 µM | [16] > 100 µM | [17] > 100 µM | [18] > 100 µM

CC(C)OC(=O)NCCn1cc(-c2ccccc2)nn1
inactive: [14] > 100 µM | [2] > 100 µM | [3] > 100 µM | [4] > 100 µM | [5] > 100 µM | [6] > 100 µM | [7] > 100 µM | [8] > 100 µM | [9] > 100 µM | [10] > 100 µM | [12] > 100 µM | [13] > 100 µM | [15] > 100 µM | [16] > 100 µM | [17] > 100 µM | [18] > 100 µM
